Each structure is given as a SMILES string.

The values that follow come from article PMC10253817, “Design, Pharmacological Characterization, and Molecular Docking of Minimalist Peptidomimetic Antagonists of α4β1 Integrin” (International Journal of Molecular Sciences, 2023).

Holding throughout (type): cell-based
Assay [1] concerns ERK1/2. In words: Western blot, FN-induced ERK1/2 phosphorylation in Jurkat E6.1 cells. The settings on record: Jurkat E6.1 cells pre-treated with 10^−7, 10^−8, 10^−9 M, then FN (10 µg/mL) 30 min. The protocol:
To this purpose, Jurkat E6.1 cells were pre-treated with different concentrations (10^−7, 10^−8, 10^−9 M) of the compounds and then exposed to FN (10 µg/mL) for 30 min. […] In addition, the effects observed on intracellular signaling were concentration-dependent, except for compound 13 on AKT activation.
Western blot analysis was performed as previously described, with the following modifications. […] For integrin antagonists, JurkatE6.1 cells were subsequently incubated with FN (10 μg/mL) at 37 °C for 30 min. At the end of the incubation period, Jurkat E6.1 cells were lysed on ice using T-PER® (Tissue Protein Extraction Reagent, Life Technologies Italia, Milan, Italy), supplemented with a phosphatase inhibitor cocktail. Protein extracts were quantified using a BCA Protein Assay (Pierce, Rockford, IL, USA). The proteins from the cytoplasmatic extract were denatured at 95 °C for 3 min, then equal amounts of protein samples (30–50 μg) were loaded and separated via 12% SDS-PAGE. Proteins were transferred onto a nitrocellulose membrane (Biorad, Hercules, CA, USA), which was blocked with 5% nonfat milk in a Tris-buffered saline (10 mM Tris-HCl, pH 8, containing 150 mM NaCl) containing 0.1% Tween 20 for 1 h at room temperature. Membranes were stained overnight at 4 °C with anti-actin antibody (1:5000, Merck Life Science, Milan, Italy) or with anti-phospho-ERK1/2, anti-total ERK1/2, anti-phospho-AKT, anti-total-AKT, or anti-phospho-JNK antibodies (1:1000; Cell Signaling Technology, Danvers, MA, USA). The membranes were incubated with anti-rabbit peroxidase-conjugated secondary antibodies at a dilution of 1:8000. Blots were developed with a SuperSignal West Pico chemiluminescent substrate. Protocols for digital image acquisition and analysis have previously been described.
On the technique in general: A western blot detects proteins with antibodies after separation by electrophoresis.

For assay [2], the target named is T1, α4β1 integrin (Homo sapiens, UniProt P05556+P13612).
T1 construct: Jurkat E6.1 cell line, which endogenously expresses α4β1 integrin; host or cells: Jurkat E6.1
In words: α4β1 integrin-mediated Jurkat cell adhesion to VCAM-1. The settings on record: Jurkat cell adhesion to VCAM-1 (2 μg/mL); antag. = reduced cell adhesion; mean ± SD. The protocol:
(§1) To this purpose, the ability of the best peptidomimetics to modulate cell adhesion mediated by integrins other than α4β1 was evaluated in HL60 cells, mainly expressing the leukocyte integrin αMβ2, and on K562 cells, mainly expressing α5β1, which shares a β1 subunit with the heterodimer α4β1. […] In contrast, 13 was a moderate promoter of cell adhesion mediated by αMβ2 integrin, behaving as an agonist. Regarding α5β1 integrin, none of the peptidomimetics employed were able to modulate K562 cell adhesion, thus being shown to be completely ineffective toward α5β1 integrin. The reference compound DS-70 was ineffective toward both αMβ2 and α5β1 integrins under the same experimental conditions (Table 3).
The assays were performed as previously described. Briefly, regarding adhesion assays on Jurkat E6.1 or HL-60 cells, black 96-well plates (Corning Costar) were coated overnight at 4 °C with FN or Fg (10 μg/mL) or VCAM-1 (2 μg/mL) in order to investigate α4β1 integrin-mediated cell adhesion. To avoid any kind of unspecific binding, plates were incubated with 100 μL/well of blocking solution (1% BSA in HBSS) for 30 min at 37 °C. Cells were counted, stained with the CellTracker green CMFDA (12.5 μM, 30 min at 37 °C, Life Technologies Italia, Milan, Italy) and after three washes, were preincubated with increasing concentrations of new compounds (10^−10–10^−4 M) or with the vehicle (methanol) for 30 min at 37 °C.
Then, cells were plated (500,000/well) on coated wells and incubated for 30 min at 37 °C. Afterwards nonadherent cells were removed via washing with a blocking solution, and the remaining adhered cells were lysed with 0.5% Triton X-100 in PBS (30 min at 4 °C). Green fluorescence was measured (Ex485 nm/Em535 nm) using an EnSpire Multimode Plate Reader (PerkinElmer, Waltham, MA, USA).
(§2) In both types of adhesion assay, the number of adherent cells was determined via comparison with a standard curve made in the same plate. Experiments were carried out in quadruplicate and repeated at least three times. Data analysis and EC50 or IC50 values were calculated using GraphPad Prism 9.5.1 (GraphPad Software, San Diego, CA, USA).

In assay [3] the target is T2, α5β1 integrin (Homo sapiens, UniProt P05556+P08648).
T2 construct: K562 cells, mainly expressing α5β1, which shares a β1 subunit with the heterodimer α4β1; host or cells: K562 (PMA-treated)
The assay can be described thus: α5β1 integrin-mediated K562 cell adhesion to FN. The conditions noted are these: K562 cell adhesion to FN (10 μg/mL). The protocol:
as §1
For adhesion assays mediated by α5β1 integrin, K562 cells were pre-treated with PMA (64.85 nM, Merck Life Science, Milan, Italy) for 48 h to enhance α5β1 integrin expression. 96-well plates were coated via passive adsorption with FN (10 μg/mL) overnight at 4 °C; then, the following day, plates were blocked by adding 100 μL/well of a blocking solution (1% BSA in PBS) and incubated for 1 h at 37 °C. K562 cells were counted and preincubated with various concentrations (10^−10–10^−4 M) of the peptides or with the vehicle for 30 min at RT. Then, K562 cells were plated (50,000 cells/well) and incubated at RT for 1 h. The wells were then washed three times with 1% BSA in PBS, and 50 μL of hexosaminidase substrate was added and incubated at RT for 1 h. After the addition of 100 μL of stopping solution (50 mM glycine and 5 mM EDTA, pH 10.4), plates were read at 405 nm in an EnSpire Multimode Plate Reader.
as §2
Cell culture. Jurkat E6.1 (expressing both α4β1 and αLβ2 integrin), K562 (expressing α5β1 integrin) and HL60 (expressing α Mβ2 integrin) cell lines were purchased from ATCC (Rockville, MD, USA); these cells were routinely cultured in RPMI-1640 (Life Technologies) supplemented with 1% glutamine and 10% fetal bovine serum (FBS). Cells were grown at 37 °C under 5% CO 2 humidified atmosphere. 40 h before the adhesion assays, K562 and HL60 cells were treated with 25 nM or 40 nM phorbol 12 -myristate 13-acetate (PMA; Sigma-Aldrich), respectively, to induced cell differentiation and to increased α5β1 or αMβ2 integrin expression on cell surface (Baiula et al., 2016).
Cell adhesion assays . Concentration-response curves, obtained from cell adhesion assays performed in […]
Figure S1. […]

T1 sequence (P13612 34-1032): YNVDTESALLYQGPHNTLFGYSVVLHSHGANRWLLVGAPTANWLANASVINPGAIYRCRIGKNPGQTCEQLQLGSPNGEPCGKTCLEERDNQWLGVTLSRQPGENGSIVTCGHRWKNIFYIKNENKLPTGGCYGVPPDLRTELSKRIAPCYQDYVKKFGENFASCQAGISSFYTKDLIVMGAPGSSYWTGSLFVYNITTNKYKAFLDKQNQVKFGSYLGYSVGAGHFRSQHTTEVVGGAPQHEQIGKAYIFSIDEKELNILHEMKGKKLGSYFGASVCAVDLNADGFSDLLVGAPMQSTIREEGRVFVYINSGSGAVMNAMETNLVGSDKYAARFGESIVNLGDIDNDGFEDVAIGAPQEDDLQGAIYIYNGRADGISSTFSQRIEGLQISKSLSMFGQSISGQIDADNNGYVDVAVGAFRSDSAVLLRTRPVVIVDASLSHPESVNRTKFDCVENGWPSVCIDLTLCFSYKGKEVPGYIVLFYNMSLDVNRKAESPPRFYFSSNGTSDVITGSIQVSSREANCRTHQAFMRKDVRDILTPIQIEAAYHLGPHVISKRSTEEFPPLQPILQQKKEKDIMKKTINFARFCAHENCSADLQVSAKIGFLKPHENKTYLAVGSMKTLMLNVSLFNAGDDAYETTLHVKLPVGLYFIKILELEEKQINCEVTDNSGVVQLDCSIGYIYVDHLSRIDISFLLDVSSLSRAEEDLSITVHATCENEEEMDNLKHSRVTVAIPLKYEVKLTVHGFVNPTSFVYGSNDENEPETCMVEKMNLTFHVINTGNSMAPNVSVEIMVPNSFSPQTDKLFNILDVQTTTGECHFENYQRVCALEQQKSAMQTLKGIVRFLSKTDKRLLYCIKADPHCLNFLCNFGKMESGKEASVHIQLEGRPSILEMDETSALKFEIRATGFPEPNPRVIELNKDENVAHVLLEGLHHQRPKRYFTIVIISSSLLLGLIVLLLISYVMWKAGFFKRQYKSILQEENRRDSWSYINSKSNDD
T1 sequence (P05556 21-798): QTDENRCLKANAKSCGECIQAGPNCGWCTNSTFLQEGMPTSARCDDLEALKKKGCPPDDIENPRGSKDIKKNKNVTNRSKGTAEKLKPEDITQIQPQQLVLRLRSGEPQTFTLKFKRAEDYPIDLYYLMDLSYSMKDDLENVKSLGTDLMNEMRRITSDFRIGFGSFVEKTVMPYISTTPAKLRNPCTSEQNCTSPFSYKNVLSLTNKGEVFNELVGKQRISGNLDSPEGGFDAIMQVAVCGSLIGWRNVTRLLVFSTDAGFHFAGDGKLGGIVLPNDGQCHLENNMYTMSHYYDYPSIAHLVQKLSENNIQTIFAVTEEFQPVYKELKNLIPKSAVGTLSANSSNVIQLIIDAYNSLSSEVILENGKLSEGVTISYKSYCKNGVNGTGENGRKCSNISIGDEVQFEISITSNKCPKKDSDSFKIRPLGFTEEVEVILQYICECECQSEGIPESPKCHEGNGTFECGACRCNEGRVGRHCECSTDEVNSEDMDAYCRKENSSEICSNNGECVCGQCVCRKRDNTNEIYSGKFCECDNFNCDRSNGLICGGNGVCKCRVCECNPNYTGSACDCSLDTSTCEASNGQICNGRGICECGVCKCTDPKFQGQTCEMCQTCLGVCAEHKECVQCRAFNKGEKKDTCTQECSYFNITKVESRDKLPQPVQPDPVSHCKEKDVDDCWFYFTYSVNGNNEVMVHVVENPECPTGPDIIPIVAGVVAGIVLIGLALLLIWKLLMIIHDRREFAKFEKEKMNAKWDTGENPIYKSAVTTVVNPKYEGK
T2 sequence (P08648 42-894 limits assumed): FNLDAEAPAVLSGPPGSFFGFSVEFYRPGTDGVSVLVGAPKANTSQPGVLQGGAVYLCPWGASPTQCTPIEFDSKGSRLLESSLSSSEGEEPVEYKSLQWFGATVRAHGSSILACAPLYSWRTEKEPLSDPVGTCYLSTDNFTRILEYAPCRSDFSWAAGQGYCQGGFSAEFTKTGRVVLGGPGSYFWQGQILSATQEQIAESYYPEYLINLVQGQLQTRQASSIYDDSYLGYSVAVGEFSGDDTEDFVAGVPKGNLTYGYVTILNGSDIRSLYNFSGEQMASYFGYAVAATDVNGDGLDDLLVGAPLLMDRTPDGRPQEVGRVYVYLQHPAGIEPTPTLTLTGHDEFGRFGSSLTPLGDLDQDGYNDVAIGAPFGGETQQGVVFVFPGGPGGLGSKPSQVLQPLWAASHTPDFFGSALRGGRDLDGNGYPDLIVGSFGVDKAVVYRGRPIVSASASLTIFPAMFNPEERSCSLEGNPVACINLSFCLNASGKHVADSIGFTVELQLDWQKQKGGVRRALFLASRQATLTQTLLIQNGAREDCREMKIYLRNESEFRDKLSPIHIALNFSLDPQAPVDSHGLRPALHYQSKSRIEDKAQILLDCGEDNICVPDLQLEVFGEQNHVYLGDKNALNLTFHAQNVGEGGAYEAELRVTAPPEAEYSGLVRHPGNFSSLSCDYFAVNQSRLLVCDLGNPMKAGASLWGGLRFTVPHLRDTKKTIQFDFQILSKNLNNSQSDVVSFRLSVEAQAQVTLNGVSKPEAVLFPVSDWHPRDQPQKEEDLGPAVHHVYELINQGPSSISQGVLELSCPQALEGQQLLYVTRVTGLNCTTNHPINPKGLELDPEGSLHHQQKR
T2 sequence (P08648 895-1049 partner limits assumed): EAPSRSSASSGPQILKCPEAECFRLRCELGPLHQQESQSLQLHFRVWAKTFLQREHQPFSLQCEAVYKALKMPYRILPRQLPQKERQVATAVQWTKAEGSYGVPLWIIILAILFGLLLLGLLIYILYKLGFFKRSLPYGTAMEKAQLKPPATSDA
T2 sequence (P05556 21-798): as the sequence (P05556 21-798) above

As for `CC(=O)N[C@@H](CNC(=O)Cc1ccc(NC(=O)Nc2ccccc2C)cc1)C(=O)NCC(=O)O` [compound 3], the “FN-induced ERK1/2 phosphorylation” value in assay [1] was “significantly prevented”. Also, the IC50 in assay [2] was 975 nM; in assay [3], > 5000 nM.
Taken in the same sequence, the figures for `CCCNC(=O)[C@@H](CC(=O)NCC(=O)O)NC(=O)Cc1ccc(NC(=O)Nc2ccccc2C)cc1` [compound 8] were “significantly prevented”, 54 nM and > 5000 nM.
With `Cc1ccccc1NC(=O)Nc1ccc(CNC(=O)C[C@@H](C)NC(=O)CC(=O)O)cc1` [compound 13], the “FN-induced ERK1/2 phosphorylation” value in assay [1] was “significantly prevented”. In addition, the half-inhibitory concentration (IC50) in assay [2] was 879 nM; in assay [3], > 5000 nM.

Usually IC50 stands for the concentration at which inhibition is half-maximal. Read a low IC50 as greater potency in that assay.
